The source of these data is PubChem BioAssay (NCI).

Test systems include CAKI-1 renal; COLO 205 colon; HCT-116 colon; HL-60(TB) leukemia; K-562 leukemia; MCF7 breast; OVCAR-3 ovarian; OVCAR-5 ovarian; PC-3 prostate; UO-31 renal.
Common to all, as to test: NCI tumour cell line growth inhibition, 48 h

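96-well plates; 48 h exposure; 5 concentrations. Endpoints by linear interpolation between flanking doses. Not reached: highest tested concentration assigned. GI50 marks 50% less growth. TGI: total growth inhibition.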

For `C=C1C(=O)O[C@H]2[C@H]1CC/C(COC(=O)NCCCCCCCCNC(=O)OC/C1=C/CC[C@@]3(C)O[C@H]3[C@H]3OC(=O)C(=C)[C@@H]3CC1)=C\CC[C@@]1(C)O[C@@H]21`, the GI50 with CAKI-1 renal was 657 nM; in the test on COLO 205 colon, 300 nM; in the test on HCT-116 colon, 198 nM; in the test with HL-60(TB) leukemia, 268 nM; in the test with K-562 leukemia, 349 nM; in the test on MCF7 breast it was 221 nM. The GI50 in the test with OVCAR-3 ovarian was 330 nM; in the test with OVCAR-5 ovarian, 269 nM; in the test on PC-3 prostate, 385 nM; with UO-31 renal, 880 nM. Moreover, the TGI amounted to 2020 nM with CAKI-1 renal; 756 nM in the test with COLO 205 colon; 407 nM in the test on HCT-116 colon; 869 nM with HL-60(TB) leukemia; 1370 nM with K-562 leukemia; 833 nM with MCF7 breast. In addition, the TGI turned out to be 1060 nM in the test with OVCAR-3 ovarian, 912 nM in the test with OVCAR-5 ovarian, 1630 nM with PC-3 prostate and 2170 nM in the test with UO-31 renal.

Consider `CSc1ccc(C(=O)/C=C/c2ccccc2Cl)cc1`, for which the GI50 in the test on CAKI-1 renal is 15400 nM; in the test on COLO 205 colon, 33500 nM; with HCT-116 colon, 2080 nM; with HL-60(TB) leukemia, 19500 nM; in the test with K-562 leukemia, 18800 nM; with MCF7 breast, 32200 nM. Besides, the GI50 was 8980 nM in the test with OVCAR-3 ovarian, 16100 nM in the test on OVCAR-5 ovarian, 16500 nM in the test with PC-3 prostate and 2310 nM in the test with UO-31 renal. The TGI in the test on CAKI-1 renal was 30700 nM; with COLO 205 colon it was greater than 100000 nM; in the test with HCT-116 colon, 3960 nM; in the test on HL-60(TB) leukemia it was 90300 nM; in the test on K-562 leukemia, 58300 nM; with MCF7 breast, greater than 100000 nM. Besides, the TGI in the test with OVCAR-3 ovarian is 21900 nM; with OVCAR-5 ovarian, 31600 nM; with PC-3 prostate it was 32400 nM; in the test on UO-31 renal, 5050 nM.

On to `FC(F)(F)c1cc(Nc2ccc3cc(OCCCN4CCOCC4)ccc3n2)ccc1Cl`, for which the GI50 in the test with CAKI-1 renal was 1660 nM; with COLO 205 colon it was 1740 nM; in the test on HCT-116 colon it was 1650 nM; with HL-60(TB) leukemia it was 2240 nM; in the test with K-562 leukemia it was 1040 nM; in the test with MCF7 breast, 1510 nM. The GI50 was 1930 nM in the test with OVCAR-3 ovarian, 2210 nM in the test with OVCAR-5 ovarian, 1090 nM with PC-3 prostate and 1550 nM in the test on UO-31 renal. Also, the TGI was 3440 nM in the test on CAKI-1 renal; 3490 nM in the test on COLO 205 colon; 3140 nM with HCT-116 colon; 6490 nM in the test on HL-60(TB) leukemia; 3830 nM in the test with K-562 leukemia; 3560 nM in the test with MCF7 breast. The TGI with OVCAR-3 ovarian turned out to be 4470 nM; in the test on OVCAR-5 ovarian, 5840 nM; with PC-3 prostate it was 2680 nM; in the test on UO-31 renal it was 3270 nM.
